# Source: patent US6461997B1, “Triazole sulfones having herbicidal activity” (Monsanto Technology LLC, priority 1999, dated 2002)
# Assays:
# POLCO (wild buckwheat) = test: Pre-plant incorporated (PPI) herbicidal activity, cool season; type: in vivo, Polygonum convolvulus; conditions: pre-plant incorporated; lowest tested rate with 80% or greater inhibition; about 14 days
# Method: (§1) In another set of tests, the pre-plant incorporated (PPI) activity of compounds of this invention was evaluated on the same species as for the pre-emergence tests described above. In the PPI tests the following procedure, designed to simulate PPI application, was used.
# (§2) A pre-prepared topsoil mixture (described above) was placed in a pot and compacted to a depth of 1.0 to 1.25 cm from the top of the pot. Seeds of each of several monocotyledonous and dicotyledonous annual plant species were placed on top of the soil. A sufficient quantity of soil to cover the seeds and level fill the pot was weighed into an open container. A known amount of the test compound was dissolved or suspended in an organic solvent and applied by spraying to this cover soil. The cover soil was thoroughly mixed to distribute the test compound throughout the cover soil, and was then applied as a cover layer over the seeds. Untreated soil was used as a cover layer for control pots. After treatment the plants were placed in a greenhouse where they received 0.64 cm of overhead irrigation. All subsequent watering consisted of a light overhead mist and/or subirrigation as needed for germination and growth. Tables 9 and 10 below relate to warm season plant species which were placed after pre-emergence treatment in a greenhouse with a 30/21° C. day/night temperature regime. Tables 11 and 12 below relates to cool season plant species placed after pre-emergence treatment in a greenhouse or growth chamber with an 18/13° C. day/night temperature regime. Only the compounds of Examples 1, 6, 8, 11, 13 and 15-20 were included in PPI tests.
# (§3) Approximately 14 days after planting and treating, the plants were observed and herbicidal efficacy recorded as percent inhibition by comparison with untreated plants.
# ALOMY (blackgrass) = test: Post-emergence herbicidal activity, cool season; type: in vivo, Alopecurus myosuroides; conditions: abraded plants sprayed at 300, 100, 30 and 10 g/ha; about 14 days after treatment
# How it was run: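 Post-emergence foliar spray; plants abraded (garnet 200w, ~850 kPa sandblast) before application. Rates 300/100/30/10 g/ha in 50:50 acetone:water, 3,100 l/ha, 511 kPa. Greenhouse 18/13° C. day/night; % inhibition vs abraded unsprayed controls at ~14 days after treatment, GR80 derived.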
# DIGSA (large crabgrass) = test: Pre-emergence herbicidal activity, warm season; type: in vivo, Digitaria sanguinalis
# How it was run: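 Under 18/13 °C (ALOMY, POLCO) or 30/21 °C (PANMI, DIGSA) day/night, pre-emergence soil-surface treatments at 300, 100, 30 and 10 g/ha were evaluated after roughly 14 days. GR80 reflects percent inhibition relative to untreated plants.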
# [1] = tested on: SORHA (johnsongrass (seedling)); test: Pre-emergence herbicidal activity, warm season; type: in vivo, Sorghum halepense
# How it was run: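 Seeds sown in sterilised fertilised topsoil received surface-applied compound in 50:50 acetone/water, typically at 300, 100, 30 and 10 g/ha, then greenhouse-grown at 30/21° C (warm-season species) or 18/13° C (cool-season species). Percent inhibition versus untreated plants was scored at about 14 days, giving GR80; an asterisk marks activity short of 80% at the top rate.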
# SETVI (green foxtail) = test: Pre-plant incorporated (PPI) herbicidal activity, cool season; type: in vivo, Setaria viridis; conditions: pre-plant incorporated; lowest tested rate with 80% or greater inhibition; about 14 days
# Method: as §1, §2, §3
# rice (ORYSA) = test: Selectivity test, PPI, warm season crop; type: in vivo, Oryza sativa; conditions: Oryza sativa, PPI application, read-out: Percent inhibition ORYSA
# Method: as §2, §3
# Additional pre-emergence and PPI tests were conducted by the procedures described above, on warm and cool season weed species in the presence of crop species, to assess herbicidal selectivity. Crop species included in warm season tests were corn (Zea mays, ZEAMX), rice (Oryza sativa, ORYSA) and soybean (Glycine max, GLYMX). Crop species included in cool season tests were wheat (Triticum aestivum, TRZAW), barley (Hordeunm vulgare, HORVX) and oilseed rape (Brassica napus, BRSNS).
# Tables 15 and 16 relate to pre-emergence and PPI tests respectively on warm season species. Table 17 relates to pre-emergence tests on cool season species.
# [2] = GR80 = lowest tested rate (300, 100, 30, 10 g/ha) with 80% or greater inhibition, approx. 14 days after treating, 30/21° C.
smiles,measurement,setting,value
"CCN(CC)C(=O)n1cnc(S(=O)(=O)C(F)F)n1 [Example 15, 1-(N,N-diethylcarbamoyl)-3-(difluoromethylsulfonyl)-1,2,4-triazole]","PPI activity GR80, POLCO",POLCO (wild buckwheat),300 g/ha
same,"Post-emergence activity GR80, ALOMY",ALOMY (blackgrass),[empty]
same,inhibition at 10 g/ha,"DIGSA (large crabgrass); Digitaria sanguinalis, pre-emergence application, 10 g/ha, read-out: Percent inhibition, weed DIGSA",70%
same,inhibition at 30 g/ha,"DIGSA (large crabgrass); Digitaria sanguinalis, pre-emergence application, 30 g/ha, read-out: Percent inhibition, weed DIGSA",40%
same,inhibition at 100 g/ha,"DIGSA (large crabgrass); Digitaria sanguinalis, pre-emergence application, 100 g/ha, read-out: Percent inhibition, weed DIGSA",80%
same,inhibition at 300 g/ha,"DIGSA (large crabgrass); Digitaria sanguinalis, pre-emergence application, 300 g/ha, read-out: Percent inhibition, weed DIGSA",100%
same,inhibition at 900 g/ha,"DIGSA (large crabgrass); Digitaria sanguinalis, pre-emergence application, 900 g/ha, read-out: Percent inhibition, weed DIGSA",100%
same,Pre-emergence activity (GR80) DIGSA,DIGSA (large crabgrass); [2],30 g/ha
same,Pre-emergence activity (GR80) SORHA,[1]; [2],100 g/ha
same,inhibition at 10 g/ha,"[1]; Sorghum halepense, pre-emergence application, 10 g/ha, read-out: Percent inhibition, weed SORHA",0%
same,inhibition at 30 g/ha,"[1]; Sorghum halepense, pre-emergence application, 30 g/ha, read-out: Percent inhibition, weed SORHA",0%
same,inhibition at 100 g/ha,"[1]; Sorghum halepense, pre-emergence application, 100 g/ha, read-out: Percent inhibition, weed SORHA",30%
same,inhibition at 300 g/ha,"[1]; Sorghum halepense, pre-emergence application, 300 g/ha, read-out: Percent inhibition, weed SORHA",95%
same,inhibition at 900 g/ha,"[1]; Sorghum halepense, pre-emergence application, 900 g/ha, read-out: Percent inhibition, weed SORHA",100%
same,"PPI activity GR80, SETVI",SETVI (green foxtail),100 g/ha
same,inhibition at 10 g/ha,rice (ORYSA); 10 g/ha,0%
same,inhibition at 30 g/ha,rice (ORYSA); 30 g/ha,0%
same,inhibition at 100 g/ha,rice (ORYSA); 100 g/ha,0%
same,inhibition at 300 g/ha,rice (ORYSA); 300 g/ha,0%
same,inhibition at 900 g/ha,rice (ORYSA); 900 g/ha,0%
